Measured values published in patent US20110183978A1, “Phenylpyri(mi)dinylazoles” (Bayer CropScience AG, priority 2009, published 2011).
Structures can show the parent of a compound that is named as a salt. Where two headings read alike, the source gives them in different places.

Columns and labels:
Alternaria solani = assay: Example M: in vivo test on Alternaria solani (leaf blotch disease/tomato/protective); details: 168 h, tomato, protective, 500 ppm active substance, assessed 7 days after inoculation, read-out: % Wirkungsgrad (activity level)
Method in brief: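 Protective test: young tomato plants sprayed with active substance (in DMF with alkylaryl polyglycol ether emulsifier, diluted in water) at the stated dosage, then inoculated with Alternaria solani. Disease assessed 7 days after inoculation.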

Botrytis cinerea [1] = assay: Example B: in vivo test on Botrytis cinerea (grey mould on cucumbers); details: cucumber plants sprayed 24 hours before inoculation, scored after 5-7 days, read-out: % Wirkungsgrad
Method in brief: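 Cucumber plants (Vert petit de Paris) sprayed at cotyledon stage Z11 with aqueous suspension of compound (acetone/Tween/DMSO), then inoculated with spores from 15-day-old culture in gelatine/fructose nutrient solution. Kept 5-7 days at 15-11° C, then scored against untreated sprayed controls.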

Peronospora parasitica = assay: Example A: in vivo test on Peronospora parasitica (downy mildew on white cabbage); details: Hyaloperonospora parasitica, 120 h, cabbage plants sprayed 24 hours before inoculation, scored after 5 days, read-out: % Wirkungsgrad
Method in brief: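 Cabbage plants (Eminence) at cotyledon stage sprayed with aqueous compound suspension (acetone/Tween/DMSO, diluted with water), then inoculated 24 h later with P. parasitica spores at 50,000 spores/ml. After 5 days in moist atmosphere at ca. 20 °C, disease scored against untreated sprayed controls.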

Alternaria brassicae = assay: Example C: in vivo test on Alternaria brassicae (leaf spot disease on radishes); details: 500 ppm; radish plants sprayed 24 hours before inoculation; scored after 6-7 days
Method: In Vivo Test on Alternaria Brassicae (Leaf Spot Disease on Radishes) An aqueous suspension of the active substance was prepared by homogenization of a mixture of acetone/Tween/dimethyl sulphoxide and subsequent dilution with water to the desired concentration. Radish plants (variety: Pernot) are sown in cultivation dishes on a peat-pozzolanic earth substrate (50/50) at 18-20° C. and sprayed at the cotyledon stage with the aqueous suspension described above. As a control, plants are sprayed with an aqueous solution with no active substance. After 24 hours, the plants are inoculated by spraying with an aqueous suspension of Alternaria brassicae spores (40,000 spores per ml). The spores are derived from a 12 to 13 day-old culture. The inoculated radish plants are incubated for 6-7 days at ca. 18° C. in a humid atmosphere. After 6-7 days they are scored in comparison with the control plants.

Sphaerotheca fuliginea [2] = assay: Example D: in vivo test on Sphaerotheca fuliginea (powdery mildew on cucumber); details: Podosphaera fuliginea, 288 h, cucumber plants sprayed 24 hours before inoculation, scored after 12 days, read-out: % Wirkungsgrad
Method in brief: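 Cucumber plants at cotyledon stage Z10 were sprayed with the compound suspended in acetone/Tween/DMSO diluted with water. After 24 hours they were inoculated with Sphaerotheca fuliginea spores (100,000/ml) and incubated at ca. 20/25° C. and 60/70% RH. Disease was scored after 12 days against untreated sprayed controls.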

[3] = test system: Mycosphaerella graminicola; assay: Example G: in vivo test on Mycosphaerella graminicola (wheat leaf blotch disease); details: Zymoseptoria tritici, wheat plants sprayed 24 hours before inoculation, scored after 21 to 28 days, read-out: % Wirkungsgrad
Method in brief: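 Scipion wheat at first-leaf stage (10 cm) was sprayed with aqueous active-substance suspension, then inoculated 24 hours later with Mycosphaerella graminicola spores (500,000 spores per ml) from 7 day-old culture. Disease was scored after 21 to 28 days against untreated sprayed controls.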

Pyricularia grisea = format: in vivo; details: 500 ppm; rice plants sprayed 24 hours before inoculation; scored after 6 days
Sphaerotheca fuliginea [4] = assay: Example L: in vivo test on Sphaerotheca fuliginea (powdery mildew on cucumber/protective); details: Podosphaera fuliginea, 168 h, cucumber, protective, assessment 7 days after inoculation, read-out: % Wirkungsgrad
Method in brief: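 Young cucumber plants sprayed at stated dosage with compound in DMF/alkylaryl polyglycol ether emulsifier diluted in water; inoculated with S. fuliginea spores one day later. Kept in greenhouse at 70% relative humidity, 23° C; protective activity assessed 7 days after inoculation.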

Puccinia recondita = assay: Example F: in vivo test on Puccinia recondita (wheat brown rust); details: 240 h, wheat plants sprayed 24 hours before inoculation, scored after 10 days, read-out: % Wirkungsgrad
Method: In Vivo Test on Puccinia Recondita (Wheat Brown Rust) An aqueous suspension of the active substance was prepared by homogenization of a mixture of acetone/Tween/dimethyl sulphoxide and subsequent dilution with water to the desired concentration. Wheat plants (variety: Scipion) are sown in cultivation dishes on a peat-pozzolanic earth substrate (50/50) at 12° C. and sprayed at the first-leaf stage (10 cm size) with the aqueous suspension described above. As a control, plants are sprayed with an aqueous solution with no active substance. After 24 hours the plants are inoculated by spraying with an aqueous suspension of Puccinia recondita spores (100,000 spores per ml). The spores are derived from a 10 day-old infected wheat crop and are suspended in water with 2.5 ml/l Tween. […] After 10 days they are scored in comparison with the control plants.

Venturia inaequalis = assay: Example O: in vivo test on Venturia inaequalis (apple scab/protective); details: 240 h, protective, assessment 10 days after inoculation, read-out: % Wirkungsgrad
Method in brief: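 Protective test: active substance mixed with solvent and alkylaryl polyglycol ether emulsifier, diluted with water, and sprayed on young plants at the stated dosage before Venturia inaequalis inoculation. Scab assessed 10 days after inoculation.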

Fusarium graminearum [5] = assay: microbe, parasite or virus in culture; format: cell-based
Fusarium proliferatum = assay: Example I: production of fumonisin FB1 by Fusarium proliferatum (microtitre plates); format: cell-based; details: 120 h
Rhynchosporium secalis = assay: Example S: in vivo test on Rhynchosporium secalis (leaf scald in barley/protective); details: 336 h, barley, protective, 1000 ppm active substance, assessed 14 days after inoculation, read-out: % Wirkungsgrad (activity level)
Method: Solvent: 49 parts by weight N,N-dimethylacetamide Emulsifier: 1 part by weight alkylaryl polyglycol ethers For the preparation of a suitable active substance preparation, 1 part by weight of active substance is mixed with the stated quantities of solvent and emulsifier and the concentrate is diluted to the desired concentration with water. For the testing for protective activity, young plants are sprayed with the active substance preparation at the stated application dosage. After drying of the spray coating, the plants are sprayed with spores with a spore suspension of Rhynchosporium secalis. […] 14 days after the inoculation, the assessment takes place.

Rhizoctonia solani = assay: Example W: in vivo test on Rhizoctonia solani (sheath blight in rice/protective); details: 96 h, rice, protective, 250 ppm active substance, assessed 4 days after inoculation, read-out: % Activity level
Method in brief: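 Young rice plants sprayed protectively with compound in acetone/alkylaryl polyglycol ether emulsion diluted in water at stated dosage. Inoculated with R. solani hyphae one day later; disease assessed 4 days post-inoculation.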

Cochliobolus miyabeanus = assay: Example X: in vivo test on Cochliobolus miyabeanus (brown spot disease, rice/protective); details: Bipolaris oryzae, 96 h, read-out: % Activity level
Septoria tritici = assay: Example R: in vivo test on Septoria tritici (leaf blotch in wheat/protective); details: Zymoseptoria tritici, 504 h, wheat, protective, 1000 ppm active substance, assessed 21 days after inoculation, read-out: % Wirkungsgrad (activity level)
Method in brief: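 Protective test: young wheat plants sprayed with compound in N,N-dimethylacetamide/alkylaryl polyglycol ether emulsifier diluted in water, dried, then inoculated with Septoria tritici spore suspension. Disease assessed 21 days after inoculation.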

Botrytis cinerea [6] = assay: Example P: in vivo test on Botrytis cinerea (gray mould on bean/protective); details: 48 h, bean, protective, 250 ppm active substance, assessed 2 days after inoculation, read-out: % Wirkungsgrad (activity level)
Method in brief: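 Protective test: young bean plants sprayed with the active substance preparation (emulsifier-based concentrate diluted in water) at the stated dosage. Once dry, each leaf received 2 agar pieces bearing Botrytis cinerea. Infection blotch size assessed 2 days after inoculation.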

[7] = test system: Fusarium nivale (var. majus); assay: whole plant or invertebrate; format: in vivo; details: Microdochium nivale, in Triticum aestivum, 120 h, read-out: % Wirkungsgrad (activity level)
Plasmopara viticola = assay: Example N: in vivo test on Plasmopara viticola (downy mildew, vine/protective); details: 144 h, vine, protective, assessment 6 days after inoculation, read-out: % Wirkungsgrad
Method in brief: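 Protective test: young vine plants were sprayed with active substance diluted in water from a solvent/alkylaryl polyglycol ether emulsifier concentrate at the stated dosage, then inoculated with P. viticola. Plants were moistened and kept 1 day in an incubation cabin, and assessed 6 days after inoculation.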

Pyricularia oryzae = assay: whole plant or invertebrate; format: in vivo; details: 120 h, read-out: % Activity level
Pythium ultimum = assay: Example U: in vivo test on Pythium ultimum (root rot/damping off in cotton/seed treatment); details: 50 g/dt; cotton seed treatment; emergence counted after 7 days
Method: The test was performed under greenhouse conditions. Cotton seeds, treated with an active compound according to the invention or a combination of active compounds according to the invention were sown in 6*6 cm size vessels, in a mixture of steamed field earth and sand (1:1). The test compound/s were dissolved in N-methyl-2-pyrrolidone and diluted to the desired concentration with water. The plants were grown at 10° C. Perlite was inoculated with mycelium from Pythium ultimum. 1 mL of the infected perlite was distributed between the treated cotton seeds. […] The assessment was made by counting the emergence.

Gibberella zeae = format: in vivo; details: 250 ppm; rice, protective; assessment 5 days after inoculation
Leptosphaeria nodorum = assay: Example Q: in vivo test on Leptosphaeria nodorum (glume blotch in wheat/protective); details: Parastagonospora nodorum, 192 h, wheat, protective, assessment 8 days after inoculation, read-out: % Wirkungsgrad
Method in brief: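 Protective test: young wheat plants sprayed with compound formulated in N,N-dimethylacetamide plus alkylaryl polyglycol ether emulsifier, diluted in water to the stated dose. After drying, plants inoculated with L. nodorum spore suspension; disease assessed 8 days post-inoculation.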

Fusarium graminearum [8] = assay: whole plant or invertebrate; format: in vivo; details: in Hordeum vulgare, 120 h, read-out: % Wirkungsgrad (activity level)
[9] = determination of the log P values by HPLC on a reverse phase column (C18), EEC-Directive 79/831 Annex V.A8
[10] = LogPA (logP of the stated pure compound or, in a mixture, of the main isomer, 1-substituted 3-aryl-1H-pyrazole)
[11] = 72 h, read-out: % Inhibition des Pilzwachstums bei 50 μM
[12] = 168 h, read-out: % Inhibition der DON/AcDON produktion bei 50 μM

CC(C)Cn1ncc(-c2ccncc2)c1-c1c(F)cccc1F [Compound 2]
pest or weed control at 500 ppm (Alternaria solani): 100%
pest or weed control at 500 ppm (Botrytis cinerea [1]): 74%
pest or weed control at 500 ppm (Peronospora parasitica): 85%
% Activity level (Alternaria brassicae): 77%
pest or weed control at 500 ppm (Sphaerotheca fuliginea [2]): 93%
chromatographic logP (physchem; [10]): 1.86
pest or weed control at 500 ppm [3]: 98%

CCC(C)n1cc(-c2ccncc2)c(-c2c(F)cccc2F)n1 (stereo not shown) [Compound 3]
pest or weed control at 500 ppm (Peronospora parasitica): 97%
% Activity level (Alternaria brassicae): 88%
pest or weed control at 500 ppm (Sphaerotheca fuliginea [2]): 93%
chromatographic logP (physchem; [10]): 1.82
pest or weed control at 500 ppm [3]: 95%

CC(C)n1ncc(-c2ccncc2)c1-c1c(F)cccc1F [Compound 10]
pest or weed control at 500 ppm (Botrytis cinerea [1]): 73%
pest or weed control at 500 ppm (Peronospora parasitica): 85%
% Activity level (Alternaria brassicae): 85%
pest or weed control at 500 ppm (Sphaerotheca fuliginea [2]): 80%
chromatographic logP (physchem; [10]): 1.54
pest or weed control at 500 ppm [3]: 95%

CCC(C)n1cc(-c2ccncc2)c(-c2ccc(F)cc2)n1 (stereo not shown) [Compound 91]
% Activity level (Pyricularia grisea): 75%
pest or weed control at 500 ppm (Alternaria solani): 95%
pest or weed control at 500 ppm (Sphaerotheca fuliginea [4]): 100%
pest or weed control at 500 ppm (Peronospora parasitica): 89%
pest or weed control at 500 ppm (Sphaerotheca fuliginea [2]): 88%
chromatographic logP (physchem; [10]): 1.5
pest or weed control at 500 ppm (Puccinia recondita): 94%

CC(C)Cn1cc(-c2ccnc3c2C(C)(C)C(=O)N3C)c(-c2ccc(F)cc2)n1 [Compound 148]
% Activity level (Pyricularia grisea): 71%
chromatographic logP (physchem; [10]): 3.68

CCC(=O)Nc1cc(-c2cn(CC)nc2-c2ccc(F)cc2)ccn1 [Compound 198]
pest or weed control at 100 ppm (Venturia inaequalis): 96%
inhibition at 50 µM (Fusarium graminearum [5]; [11]): 100%
inhibition at 50 µM (Fusarium graminearum [5]; [12]): 100%
pest or weed control at 500 ppm (Alternaria solani): 93%
inhibition at 50 µM (Fusarium proliferatum; Fusarium proliferatum growth, OD 620, 5 days, read-out: % Inhibition des Pilzwachstums bei 50 μM): 99%
inhibition at 50 µM (Fusarium proliferatum; Fusarium proliferatum, 5 days at 20° C., HPLC-MS/MS, read-out: % Inhibition der FB1 produktion bei 50 μM): 100%
pest or weed control at 1000 ppm (Rhynchosporium secalis): 90%
pest or weed control at 250 ppm (Rhizoctonia solani): 88%
pest or weed control at 250 ppm (Cochliobolus miyabeanus): 90%
pest or weed control at 500 ppm (Sphaerotheca fuliginea [4]): 99%
pest or weed control at 1000 ppm (Septoria tritici): 100%
pest or weed control at 250 ppm (Botrytis cinerea [6]): 99%
pest or weed control at 1000 ppm [7]: 100%
pest or weed control at 100 ppm (Plasmopara viticola): 92%
pest or weed control at 250 ppm (Pyricularia oryzae): 85%
% Activity level (Pythium ultimum): 88%
chromatographic logP (physchem; LogPA): 1.82
% Activity level (Gibberella zeae): 80%
pest or weed control at 1000 ppm (Leptosphaeria nodorum): 100%
pest or weed control at 1000 ppm (Fusarium graminearum [8]): 100%

CCOC(=O)Nc1cc(-c2cn(CC(F)F)nc2-c2ccc(F)cc2)ccn1 [Compound 241]
pest or weed control at 500 ppm (Alternaria solani): 94%
chromatographic logP [9]: 2.45

CCOC(=O)Nc1cc(-c2cn(CC3CC3(Cl)Cl)nc2-c2ccc(F)cc2)ccn1 (stereo not shown) [Compound 264]
inhibition at 50 µM (Fusarium graminearum [5]; [11]): 17%
inhibition at 50 µM (Fusarium graminearum [5]; [12]): 99%
chromatographic logP [9]: 3.37

Fc1ccc(-c2n[nH]cc2-c2ccncc2)cc1 [[IX-1], 4-[3-(4-Fluorophenyl)-1H-pyrazol-4-yl]pyridine hydrochloride]
chromatographic logP ([9]; pH 2.7): 0.65

CCC[CH2][Sn]([CH2]CCC)([CH2]CCC)[c]1c(-c2ccncc2)cnn1C1CCCCO1 (stereo not shown) [[XI-1], 4-[1-(Tetrahydro-2H-pyran-2-yl)-5-(tributylstannyl)-1H-pyrazol-4-yl]pyridine]
chromatographic logP ([9]; pH 2.7): 5.09

c1cc(-c2cnn(C3CCCCO3)c2)ccn1 (stereo not shown) [[XII-1], 4-[1-(Tetrahydro-2H-pyran-2-yl)-1H-pyrazol-4-yl]pyridine]
chromatographic logP ([9]; pH 2.7): 0.38
